Source: patent US20240423949A1, “APPLICATION OF SALVIANOLIC ACID B IN PREPARING ANTI-ROTAVIRUS PREPARATION” (GUANGDONG MEDICAL UNIVERSITY, priority 2023, published 2024)

What was measured:
[1] = system: RV structural protein VP6 gene expression; experiment: Gene expression level of RV structural protein VP6 in RV infected MA104 cells (real time PCR); format: cell-based, rotavirus
Procedure: (1) In order to further verify whether salvianolic acid B has an inhibitory effect on RV synthesis, a drug group (MA104 cells after RV infection were treated with different concentrations of salvianolic acid B), a ribavirin group, a normal group, and an RV group were set up. The supernatant was removed and PBS rinse was performed twice. 1 mL of Trizol reagent was added to each well and allowed to stand for 5 minutes. After blowing the cells with a gun tip, they were collected in a 1.5 mL enzyme free EP tube. 200 μL of chloroform was add to the tube. After 15 seconds of vortex shock, the tube was placed at room temperature for 5 min, and centrifuged (4° C., 12000 r/min for 15 min). The centrifuged sample was divided into three layers, namely, the colorless upper layer, the white middle layer and the red lower layer. […]
Real time quantitative PCR was performed using SYBR Green I fluorescence labeling to detect the expression levels of VP6 in the drug group, ribavirin group, normal group, and RV group, SYBR® Premix Pro Taq HS qPCR Kit II reagent kit was adopted, and GAPDH was selected as an internal reference. In the experiment, a real-time fluorescent quantitative PCR amplification reaction system was prepared according to the following table with a dedicated Real-time PCR plate of Axygen, and the reaction solution was prepared on ice (the total reaction was is 10 μL).

Wa strain rotavirus [2] = experiment: Anti-RV biosynthesis effect in MA104 cells (drug after virus, MTT assay); format: cell-based; settings: 64-256 μM, 100 TCID50, 72 h
Procedure: 100 TCID50 virus solution (virus with 20 μg/mL trypsin at 37° C. for 30 min) was added to a 96-well culture plate of MA104 cells grown to monolayers, with 100 μL per well, and the cells were rinsed twice with PBS before addition. A normal cell control group was set, an equal volume of DMEM culture solution was added, then the 96-well plate was placed in a 5% CO2 incubator at 37° C. for incubation for 2 h, the virus solution was aspirated, different concentrations of salvianolic acid B and ribavirin were added, respectively, with 100 μL per well, and a virus control group was set and added with only a maintenance solution, with 100 μL per well. The 96-well plate was placed in a 5% CO2 incubator at 37° C. for incubation and continuous observation for 72 h and then detected by the MTT assay. A 1/10 volume of MTT solution was added to each well. After being incubated for 3-4 h in the incubator, the 96-well plate was removed, the culture solution in the well was carefully aspirated, and 150 μL of DMSO was added to each well. The plate was shaken at a low speed for 10 min on a shaker to fully dissolve the crystal, and the absorbance was detected and recorded at a wavelength of 490 nm. The drug-to-virus inhibition rates were calculated and the experiment was repeated 3 times. […]

Wa strain rotavirus [3] = experiment: Anti-RV adsorption effect in MA104 cells (drug before virus, MTT assay); format: cell-based; settings: 16-256 μM
Procedure: Salvianolic acid B solutions of different concentrations were added into a 96-well culture plate of MA104 cells grown into monolayers, wherein 4 wells were repeated for each concentration of the solution, with 100 μL per well. An equal volume of ribavirin was added to the positive control group, and only an equal volume of DMEM culture solution was added to both the normal cell control group and the virus control group, and same were placed in a 5% CO2 incubator at 37° C. for incubation for 2 h. […] 1/10 volume of MTT solution was added to each well, after being incubated for 3-4 h in the incubator, the 96-well plate was taken out, the culture solution in the well was carefully aspirated, 150 uL of DMSO was added to each well, and same was placed on a shaker and shaken at a low speed for 10 min, so that the crystal was fully dissolved; and the absorbance was detected and recorded at a wavelength of 490 nm. The drug-to-virus inhibition rates were calculated and the experiment was repeated 3 times. […]

Wa strain rotavirus [4] = experiment: Direct inhibitory effect on RV (drug pre-mixed with virus, MA104 cells, MTT assay); format: cell-based
Procedure: Different concentrations of salvianolic acid B solution with 50TCID50 virus solution (virus with 20 μg/mL trypsin at 37° C. for 30 min), DMEM with 50TCID50 virus solution, ribavirin with 50TCID50 virus solution were mixed in equal volumes and incubated in a 5% CO2 incubator at 37° C. for 2 hours. The cells were rinsed twice with PBS and added to a 96-well culture plate of MA104 cells grown to monolayers, and for the normal cell control group, an equal volume of DMEM was added. After incubated at 37° C. and 5% CO2 for 2 h, the mixed solution was aspirated and the maintenance solution was added, with 100 μL per well. The 96-well plate was placed in a 5% CO2 incubator at 37° C. for continuous observation for 72 h and then detected by the MTT assay. A 1/10 volume of MTT solution was added to each well. After incubated for 3-4 h in the incubator, the 96-well plate was removed, the culture solution in the well was carefully aspirated, and 150 µL of DMSO was added to each well. The plate was shaken at a low speed for 10 min on a shaker to fully dissolve the crystal, and the absorbance was detected and recorded at a wavelength of 490 nm. The drug-to-virus inhibition rates were calculated and the experiment was repeated 3 times.
Virus inhibition rate (%)=(average A value of drug group−average A value of virus control group)/(average A value of normal cell control group−average A value of virus control group)×100%

MA104 cells = experiment: Toxicity of salvianolic acid B on MA104 cells (MTT assay); format: cell-based, Rhesus monkey; settings: 72 h; for Toxicity to MA104 cells: concentration range 0-256 μM
Procedure: When the MA104 cells grew to monolayers, the cells were digested, centrifuged and resuspended, and the suspension was further diluted and then 10 μL was taken and counted on a blood cell counting plate, and the required cell volume was calculated. Cell plating was then performed in a 96-well plate with 100 μL of the cell suspension per well at a cell density of 8×10^4 per mL. Cells grown to monolayers were treated with different concentrations of salvianolic acid B for 72 h, and the toxicity of salvianolic acid B on MA104 cells was detected by MTT assay. 10 μL of MTT solution was added to each well, and the mixture was incubated in the incubator for 3-4 h. Then, the 96-well plate was taken out, and the culture solution in the well was carefully aspirated from the wells. 150 μL of DMSO was added to each well, and the mixture was shaken at a low speed for 10 min on a shaker to fully dissolve the crystal, and the absorbance was detected and recorded at a wavelength of 490 nm.
The formula for the relative cell survival rate is:
Cell survival rate={(Aexperimental group−Ablank)/(Acontrol group−Ablank)×100%}

Row | Structure (SMILES) | Gene expression of VP6 compared to the RV group ([1]; ribavirin group) | Virus inhibition rate (anti-RV biosynthesis) (Wa strain rotavirus [2]) | Anti-RV adsorption effect (conclusion) (Wa strain rotavirus [3]) | Virus inhibition rate (anti-RV adsorption) (Wa strain rotavirus [3]; 100TCID50, 72 h) | Direct inhibitory effect on RV (conclusion) (Wa strain rotavirus [4]; 16-256 μM) | inhibition at 16 µM (Wa strain rotavirus [4]; Rotavirus, MA104, 16 μM (first of five values over 16-256 μM), 50TCID50, 72 h, read-out: Inhibitory rate directly inhibiting RV) [%] | inhibition at 32 µM (Wa strain rotavirus [4]; Rotavirus, MA104, 32 μM (second of five values over 16-256 μM), 50TCID50, 72 h, read-out: Inhibitory rate directly inhibiting RV) [%] | inhibition at 64 µM (Wa strain rotavirus [4]; Rotavirus, MA104, 64 μM (third of five values over 16-256 μM), 50TCID50, 72 h, read-out: Inhibitory rate directly inhibiting RV) [%] | inhibition at 128 µM (Wa strain rotavirus [4]; Rotavirus, MA104, 128 μM (fourth of five values over 16-256 μM), 50TCID50, 72 h, read-out: Inhibitory rate directly inhibiting RV) [%] | inhibition at 256 µM (Wa strain rotavirus [4]; Rotavirus, MA104, 256 μM (fifth of five values over 16-256 μM), 50TCID50, 72 h, read-out: Inhibitory rate directly inhibiting RV) [%] | Cell survival rate (MA104 cells; 512 μM, MA104 cells) | Toxicity to MA104 cells (MA104 cells) | Toxicity to MA104 cells (MA104 cells; listed as Salvianolic acid B) | Expression level of VP6 compared with the RV group ([1]; 64, 128 and 256 μM, dose-response correlation)
1 | NC(=O)c1ncn([C@@H]2O[C@H](CO)[C@@H](O)[C@H]2O)n1 [ribavirin, reference compound] | significantly reduced | – | – | – | – | – | – | – | – | – | – | – | – | –
2 | O=C(/C=C/c1ccc(O)c2c1[C@@H](C(=O)O[C@H](Cc1ccc(O)c(O)c1)C(=O)O)[C@H](c1ccc(O)c(O)c1)O2)O[C@H](Cc1ccc(O)c(O)c1)C(=O)O [salvianolic acid B, Salvianolic acid B] | – | higher than 50% | no significant anti-RV adsorption effect | below 50% | no direct inhibitory effect | 14.2 | 15.2 | 16.5 | 15.8 | 12.7 | below 95% | no obvious toxicity | no drug toxicity | significantly reduced
